{
  "source": "patent US20260125400A1",
  "about": "“TYK2 DEGRADERS AND USES THEREOF” (Kymera Therapeutics, Inc., priority 2023, published 2026)",
  "data": [
    {"molecular_target": "T1, TYK2 (Homo sapiens, UniProt P29597)", "T1 construct": "Degradation of TYK2 in cells was quantitatively measured using Meso Scale Discovery (MSD) technology; endogenous in cells; host or cells: OCI-LY10", "T1 sequence (P29597 whole entry)": "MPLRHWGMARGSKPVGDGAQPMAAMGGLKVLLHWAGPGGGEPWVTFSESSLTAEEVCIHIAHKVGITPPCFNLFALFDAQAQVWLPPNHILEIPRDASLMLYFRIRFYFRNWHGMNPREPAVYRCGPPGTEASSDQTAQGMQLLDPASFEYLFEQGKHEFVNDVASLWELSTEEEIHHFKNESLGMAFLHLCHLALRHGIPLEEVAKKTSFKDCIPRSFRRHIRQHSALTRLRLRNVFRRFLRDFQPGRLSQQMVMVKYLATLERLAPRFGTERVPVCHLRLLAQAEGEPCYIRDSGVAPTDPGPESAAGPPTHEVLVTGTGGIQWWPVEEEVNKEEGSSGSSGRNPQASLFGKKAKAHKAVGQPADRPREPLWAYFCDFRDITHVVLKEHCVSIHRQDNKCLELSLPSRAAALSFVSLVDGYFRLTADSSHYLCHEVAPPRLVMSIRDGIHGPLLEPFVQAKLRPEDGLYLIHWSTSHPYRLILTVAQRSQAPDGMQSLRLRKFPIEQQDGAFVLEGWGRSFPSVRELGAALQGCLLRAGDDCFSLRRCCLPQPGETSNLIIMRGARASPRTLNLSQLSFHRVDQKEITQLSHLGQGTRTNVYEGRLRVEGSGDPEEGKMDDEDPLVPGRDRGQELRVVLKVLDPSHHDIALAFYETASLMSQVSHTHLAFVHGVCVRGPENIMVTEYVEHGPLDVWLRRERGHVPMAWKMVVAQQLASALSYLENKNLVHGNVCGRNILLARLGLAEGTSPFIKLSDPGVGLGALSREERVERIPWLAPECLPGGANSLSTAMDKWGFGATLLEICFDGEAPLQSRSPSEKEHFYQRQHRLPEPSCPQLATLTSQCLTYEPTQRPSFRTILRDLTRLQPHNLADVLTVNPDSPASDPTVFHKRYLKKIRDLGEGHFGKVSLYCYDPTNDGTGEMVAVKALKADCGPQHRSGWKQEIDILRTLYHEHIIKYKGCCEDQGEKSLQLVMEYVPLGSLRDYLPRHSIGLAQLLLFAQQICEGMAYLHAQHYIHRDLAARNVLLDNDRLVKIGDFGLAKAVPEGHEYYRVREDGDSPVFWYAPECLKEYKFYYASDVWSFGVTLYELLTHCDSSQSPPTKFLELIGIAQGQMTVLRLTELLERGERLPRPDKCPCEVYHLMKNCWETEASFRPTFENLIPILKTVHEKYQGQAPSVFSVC", "assay": "TYK2 MSD degradation in OCI-LY10 cells", "type": "cell-based", "details": "TYK2 degradation in OCI-LY10 cells, 4 to 24 hours incubation", "in_short": "(§1)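 Cellular TYK2 levels were measured by Meso Scale Discovery sandwich detection in RIPA lysates of OCI-LY10 cells exposed 4 to 24 hours at 37° C to nine 1:3 compound doses starting at 1 to 10 μM final; dose-response fitted by four-parameter regression.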", "values": [
      {"smiles": "CNc1cc(N2CCc3c(CN4CCC(N5CCC6(CCN(C(=O)c7cc(N8CCC(=O)NC8=O)c(C)cn7)CC6)CC5)C(F)(F)C4)cccc32)nn2c(C(=O)N[C@@H]3C[C@@H]3F)cnc12", "note": "(some centres unmarked) [I-1022]", "TYK2 MSD OCI-LY10 Dmax %": "B (B (90 to >75%))"},
      {"smiles": "CNc1cc(N2CCc3c(-c4ccc(CN5CCN(Cc6ccc(NC7CCC(=O)NC7=O)c(Cl)c6)CC5)cn4)cccc32)nn2c(C(=O)N[C@@H]3C[C@@H]3F)cnc12", "note": "(some centres unmarked) [I-389]", "TYK2 MSD OCI-LY10 Dmax %": "C (C (75 to 50%))"},
      {"smiles": "CNc1cc(N2CCc3c(N4CCN(CC5CCC6(CC5)CCN(C(=O)c5ccc(Cl)c(N7CCC(=O)NC7=O)c5)CC6)CC4)cccc32)nn2c(C(=O)NC3CC3)cnc12", "note": "[I-55]", "TYK2 MSD OCI-LY10 Dmax %": "D (D (<50%))"},
      {"smiles": "CNc1cc(N2CCc3c(-c4ccc(CN5CCC6(CCN(C(=O)c7ccc(Cl)c(N8CCC(=O)NC8=O)c7)CC6)C5)cn4)cccc32)nn2c(C(=O)N[C@H]3C[C@H]3F)cnc12", "note": "[I-85]", "TYK2 MSD OCI-LY10 Dmax %": "B (B (90 to >75%))"},
      {"smiles": "CNc1cc(N2CCc3c(-c4ccc(CN5CC6(CCN(C(=O)c7cc(C)c(Cl)c(N8CCC(=O)NC8=O)c7)CC6(F)F)C5)cn4)cccc32)nn2c(C(=O)N[C@H]3CCC[C@@H]3OC)cnc12", "note": "[I-1117]", "TYK2 MSD OCI-LY10 Dmax %": "D (D (<50%))"},
      {"smiles": "CNc1cc(N2CCc3c(-c4ncc(CN5CCC6(CCN(C(=O)c7cc(C)c(Cl)c(N8CCC(=O)NC8=O)c7)CC6)C(F)(F)C5)cc4F)cccc32)nn2c(C(=O)N[C@@H]3CC[C@H]3OC)cnc12", "note": "[I-1106]", "TYK2 MSD OCI-LY10 Dmax %": "A (A (>90%))"},
      {"smiles": "CNc1cc(N2CCc3c(-c4ccc(CN5CCC6(CCN(C(=O)c7cc(C)c(C)c(N8CCC(=O)NC8=O)c7)CC6)C(F)(F)C5)cn4)cccc32)nn2c(C(=O)N[C@@H]3C[C@@H]3F)cnc12", "note": "[I-797]", "TYK2 MSD OCI-LY10 Dmax %": "A (A (>90%))"},
      {"smiles": "CNc1cc(N2CCc3c(CN4CCC(N5CCC6(CC5)CN(C(=O)c5ccc(Cl)c(N7CCC(=O)NC7=O)c5)C6)C(F)(F)C4)cccc32)nn2c(C(=O)N[C@@H]3C[C@@H]3F)cnc12", "note": "(some centres unmarked) [I-855]", "TYK2 MSD OCI-LY10 Dmax %": "A (A (>90%))"},
      {"smiles": "CNc1cc(N2CCc3c(-c4ccc(CN5CCC6(CC5)CCN(c5ccc(Cl)c(NC7CCC(=O)NC7=O)c5)CC6)cn4)cccc32)nn2c(C(=O)NC3CC3)cnc12", "note": "(centres unmarked) [I-66]", "TYK2 MSD OCI-LY10 Dmax %": "D (D (<50%))"},
      {"smiles": "CNc1cc(N2CCc3c(N4CCN(C5CCC6(CC5)CCN(C(=O)c5ccc(Cl)c(N7CCC(=O)NC7=O)c5)CC6)CC4)cccc32)nn2c(C(=O)N[C@@H]3C[C@@H]3F)cnc12", "note": "[I-284]", "TYK2 MSD OCI-LY10 Dmax %": "D (D (<50%))"},
      {"smiles": "CNc1cc(N2CCc3c(CN4CCC(N5CCC6(CC5)CN(C(=O)c5cc(N7CCC(=O)NC7=O)c(Cl)c(C)n5)C6)C(F)(F)C4)cccc32)nn2c(C(=O)N[C@@H]3CC[C@H]3OC)cnc12", "note": "(some centres unmarked) [I-1156]", "TYK2 MSD OCI-LY10 Dmax %": "B (B (90 to >75%))"},
      {"smiles": "CNc1cc(N2CCc3c(-c4ccc(CN5CC6(CCN(C(=O)c7ccc(Cl)c(N8CCC(=O)NC8=O)c7)CC6(F)F)C5)cn4)cc(C(F)(F)F)cc32)nn2c(C(=O)N[C@@H]3C[C@@H]3F)cnc12", "note": "[I-856]", "TYK2 MSD OCI-LY10 Dmax %": "C (C (75 to 50%))"},
      {"smiles": "CNc1cc(N2CCc3c(-c4ccc(CN5CCC(N6CC7(CCN(c8cccc9c8n(C)c(=O)n9C8CCC(=O)NC8=O)CC7)C6)C(F)(F)C5)cn4)cccc32)nn2c(C(=O)N[C@@H]3C[C@@H]3F)cnc12", "note": "(some centres unmarked) [I-279]", "TYK2 MSD OCI-LY10 Dmax %": "B (B (90 to >75%))"},
      {"smiles": "CNc1cc(N2CCc3c(CN4CCC(N5CCN(C(=O)c6ccc(Cl)c(N7CCC(=O)NC7=O)c6)CC5)C(F)(F)C4)cccc32)nn2c(C(=O)N[C@@H]3C[C@@H]3F)cnc12", "note": "(some centres unmarked) [I-890]", "TYK2 MSD OCI-LY10 Dmax %": "B (B (90 to >75%))"},
      {"smiles": "CNc1cc(N2CCc3c(-c4ccc(CN5CC6(CCN(C(=O)c7ccc(Cl)c(N8CCC(=O)NC8=O)c7)CC6(F)F)C5)cn4)cccc32)nn2c(C(=O)NC3CC3)cnc12", "note": "[I-29]", "TYK2 MSD OCI-LY10 Dmax %": "B (B (90 to >75%))"},
      {"smiles": "CNc1cc(N2CCc3c(-c4ccc(CN5CC6(CCN(C(=O)c7ccc(Cl)c(N8CCC(=O)NC8=O)c7)CC6)C5)nc4)cccc32)nn2c(C(=O)N[C@@H]3C[C@@H]3F)cnc12", "note": "[I-247]", "TYK2 MSD OCI-LY10 Dmax %": "B (B (90 to >75%))"},
      {"smiles": "CNc1cc(N2CCc3c(-c4ccc(CN5CC6(CCN(C(=O)c7cnc(OC)c(N8CCC(=O)NC8=O)c7)CC6)C5)cn4)cccc32)nn2c(C(=O)N[C@@H]3C[C@@H]3F)cnc12", "note": "[I-352]", "TYK2 MSD OCI-LY10 Dmax %": "B (B (90 to >75%))"},
      {"smiles": "CNc1cc(N2CCc3c(N4CCC(CN5CCC(N6CCN(c7ccc8c(c7)n(C)c(=O)n8C7CCC(=O)NC7=O)CC6)C(F)(F)C5)CC4)cccc32)nn2c(C(=O)NC3CC3)cnc12", "note": "(centres unmarked) [I-5]", "TYK2 MSD OCI-LY10 Dmax %": "C (C (75 to 50%))"},
      {"smiles": "CNc1cc(N2CCc3c(N4CCN(CC5CCC6(CC5)CCN(c5ccc7c(c5)n(C)c(=O)n7C5CCC(=O)NC5=O)CC6)CC4)cccc32)nn2c(C(=O)NC3CC3)cnc12", "note": "(centres unmarked) [I-39]", "TYK2 MSD OCI-LY10 Dmax %": "D (D (<50%))"}
    ]},
    {"molecular_target": "T1, TYK2", "assay": "TYK2 MSD degradation in OCI-LY10 cells", "type": "cell-based", "details": "TYK2 degradation in OCI-LY10 cells, 4 to 24 hours incubation, read-out: TYK2 MSD OCI-LY10 Rel-DC50", "in_short": "as §1", "units": {"DC50": "nM"}, "values": [
      {"smiles": "CNc1cc(N2CCc3c(CN4CCC(N5CCC6(CCN(C(=O)c7cc(N8CCC(=O)NC8=O)c(C)cn7)CC6)CC5)C(F)(F)C4)cccc32)nn2c(C(=O)N[C@@H]3C[C@@H]3F)cnc12", "note": "(some centres unmarked) [I-1022]", "DC50": "< 1"},
      {"smiles": "CNc1cc(N2CCc3c(-c4ccc(CN5CCN(Cc6ccc(NC7CCC(=O)NC7=O)c(Cl)c6)CC5)cn4)cccc32)nn2c(C(=O)N[C@@H]3C[C@@H]3F)cnc12", "note": "(some centres unmarked) [I-389]", "DC50": "< 10"},
      {"smiles": "CNc1cc(N2CCc3c(N4CCN(CC5CCC6(CC5)CCN(C(=O)c5ccc(Cl)c(N7CCC(=O)NC7=O)c5)CC6)CC4)cccc32)nn2c(C(=O)NC3CC3)cnc12", "note": "[I-55]", "DC50": "> 100"},
      {"smiles": "CNc1cc(N2CCc3c(-c4ccc(CN5CCC6(CCN(C(=O)c7ccc(Cl)c(N8CCC(=O)NC8=O)c7)CC6)C5)cn4)cccc32)nn2c(C(=O)N[C@H]3C[C@H]3F)cnc12", "note": "[I-85]", "DC50": "< 1"},
      {"smiles": "CNc1cc(N2CCc3c(-c4ccc(CN5CC6(CCN(C(=O)c7cc(C)c(Cl)c(N8CCC(=O)NC8=O)c7)CC6(F)F)C5)cn4)cccc32)nn2c(C(=O)N[C@H]3CCC[C@@H]3OC)cnc12", "note": "[I-1117]", "DC50": "> 100"},
      {"smiles": "CNc1cc(N2CCc3c(-c4ncc(CN5CCC6(CCN(C(=O)c7cc(C)c(Cl)c(N8CCC(=O)NC8=O)c7)CC6)C(F)(F)C5)cc4F)cccc32)nn2c(C(=O)N[C@@H]3CC[C@H]3OC)cnc12", "note": "[I-1106]", "DC50": "< 10"},
      {"smiles": "CNc1cc(N2CCc3c(-c4ccc(CN5CCC6(CCN(C(=O)c7cc(C)c(C)c(N8CCC(=O)NC8=O)c7)CC6)C(F)(F)C5)cn4)cccc32)nn2c(C(=O)N[C@@H]3C[C@@H]3F)cnc12", "note": "[I-797]", "DC50": "< 1"},
      {"smiles": "CNc1cc(N2CCc3c(CN4CCC(N5CCC6(CC5)CN(C(=O)c5ccc(Cl)c(N7CCC(=O)NC7=O)c5)C6)C(F)(F)C4)cccc32)nn2c(C(=O)N[C@@H]3C[C@@H]3F)cnc12", "note": "(some centres unmarked) [I-855]", "DC50": "< 1"},
      {"smiles": "CNc1cc(N2CCc3c(-c4ccc(CN5CCC6(CC5)CCN(c5ccc(Cl)c(NC7CCC(=O)NC7=O)c5)CC6)cn4)cccc32)nn2c(C(=O)NC3CC3)cnc12", "note": "(centres unmarked) [I-66]", "DC50": "> 100"},
      {"smiles": "CNc1cc(N2CCc3c(N4CCN(C5CCC6(CC5)CCN(C(=O)c5ccc(Cl)c(N7CCC(=O)NC7=O)c5)CC6)CC4)cccc32)nn2c(C(=O)N[C@@H]3C[C@@H]3F)cnc12", "note": "[I-284]", "DC50": "> 100"},
      {"smiles": "CNc1cc(N2CCc3c(CN4CCC(N5CCC6(CC5)CN(C(=O)c5cc(N7CCC(=O)NC7=O)c(Cl)c(C)n5)C6)C(F)(F)C4)cccc32)nn2c(C(=O)N[C@@H]3CC[C@H]3OC)cnc12", "note": "(some centres unmarked) [I-1156]", "DC50": "< 1"},
      {"smiles": "CNc1cc(N2CCc3c(-c4ccc(CN5CC6(CCN(C(=O)c7ccc(Cl)c(N8CCC(=O)NC8=O)c7)CC6(F)F)C5)cn4)cc(C(F)(F)F)cc32)nn2c(C(=O)N[C@@H]3C[C@@H]3F)cnc12", "note": "[I-856]", "DC50": "10 to 100"},
      {"smiles": "CNc1cc(N2CCc3c(-c4ccc(CN5CCC(N6CC7(CCN(c8cccc9c8n(C)c(=O)n9C8CCC(=O)NC8=O)CC7)C6)C(F)(F)C5)cn4)cccc32)nn2c(C(=O)N[C@@H]3C[C@@H]3F)cnc12", "note": "(some centres unmarked) [I-279]", "DC50": "< 10"},
      {"smiles": "CNc1cc(N2CCc3c(CN4CCC(N5CCN(C(=O)c6ccc(Cl)c(N7CCC(=O)NC7=O)c6)CC5)C(F)(F)C4)cccc32)nn2c(C(=O)N[C@@H]3C[C@@H]3F)cnc12", "note": "(some centres unmarked) [I-890]", "DC50": "< 10"},
      {"smiles": "CNc1cc(N2CCc3c(-c4ccc(CN5CC6(CCN(C(=O)c7ccc(Cl)c(N8CCC(=O)NC8=O)c7)CC6(F)F)C5)cn4)cccc32)nn2c(C(=O)NC3CC3)cnc12", "note": "[I-29]", "DC50": "< 10"},
      {"smiles": "CNc1cc(N2CCc3c(-c4ccc(CN5CC6(CCN(C(=O)c7ccc(Cl)c(N8CCC(=O)NC8=O)c7)CC6)C5)nc4)cccc32)nn2c(C(=O)N[C@@H]3C[C@@H]3F)cnc12", "note": "[I-247]", "DC50": "< 10"},
      {"smiles": "CNc1cc(N2CCc3c(-c4ccc(CN5CC6(CCN(C(=O)c7cnc(OC)c(N8CCC(=O)NC8=O)c7)CC6)C5)cn4)cccc32)nn2c(C(=O)N[C@@H]3C[C@@H]3F)cnc12", "note": "[I-352]", "DC50": "< 1"},
      {"smiles": "CNc1cc(N2CCc3c(N4CCC(CN5CCC(N6CCN(c7ccc8c(c7)n(C)c(=O)n8C7CCC(=O)NC7=O)CC6)C(F)(F)C5)CC4)cccc32)nn2c(C(=O)NC3CC3)cnc12", "note": "(centres unmarked) [I-5]", "DC50": "< 10"},
      {"smiles": "CNc1cc(N2CCc3c(N4CCN(CC5CCC6(CC5)CCN(c5ccc7c(c5)n(C)c(=O)n7C5CCC(=O)NC5=O)CC6)CC4)cccc32)nn2c(C(=O)NC3CC3)cnc12", "note": "(centres unmarked) [I-39]", "DC50": "< 10"}
    ]}
  ]
}
